According to paper PMC11363342 (ACS Central Science, 2024):
Entries after “also recorded” stand apart in the source; their conditions may differ.

Assays:
SARS-CoV-2 [1] = assay: microbe, parasite or virus in culture; format: cell-based; conditions: Severe acute respiratory syndrome coronavirus 2, Vero C1008, Vero E6 cells, SARS-CoV-2/Leiden0002, n = 3, mean ± SEM; read-out: EC50 (μM), SARS-CoV-2 CPE reduction
SARS-CoV-2 [2] = assay: Viral load reduction assay in Calu-3 cells, extracellular viral RNA copies by RT-qPCR; format: cell-based; conditions: Calu-3, MOI 1, 16 hpi
Protocol: Cells were pretreated with 11 and infected with SARS-CoV-2 at a multiplicity of infection (MOI) of 1. At 16 h postinfection (hpi) supernatant was harvested to quantify the infectious virus titer by plaque assay and extracellular viral RNA copies by RT-qPCR. […] This is in line with the expected mechanism of action of the compound that involves viral (structural) protein maturation, likely resulting in reduced infectivity of progeny virus. We then calculated the specific infectivity (defined as the number of infectious particles per viral RNA copy) of treated and untreated samples for the data in Figure 3A,B (Figure 3C). […] None of the treatments caused noticeable cytotoxicity in uninfected treated cells (Figure 3B). Similarly, treatment of infected Calu-3 lung epithelial cells with 11 reduced infectious progeny virus titers by ∼10-fold, while no reduction in extracellular viral RNA copies was observed (Figure S3).
Figure S2: Cytopathic effect reduction assays on Vero E6 monkey kidney cells and H1299/ACE2 human lung epithelial cells. […]
plaque assay and RT-qPCR, respectively. Uninfected compound-treated cells were assessed by MTS assay in parallel to measure cytotoxicity of the compounds. n=3 independent experiments. […]

MERS-CoV = format: cell-based; conditions: HuH-7, MOI 1, 16 hpi, increasing concentrations
SARS-CoV-2 [3] = assay: Viral load reduction assay in ALI-PBEC; format: cell-based; conditions: ALI-PBEC
Protocol: Thus, ALI-PBEC cells were infected with SARS-CoV-2 (10^5 PFU per insert; estimated MOI ∼0.1) and treated with compounds on the apical side of the cells for 2 h. For uninfected controls, PBS was used instead of virus. The compounds were also present in the basal medium during the whole experiment until 48 hpi, when samples were harvested. […] (Figure 4D).
ALI-PBEC were pretreated with compound in the basal medium for 3 h. Cells were infected with 100 000 PFU of SARS-CoV-2/Leiden0008 per insert (estimated MOI 0.1) with compounds present in the inoculum. After 2 h at 37 °C on a rocking platform, the inoculum was removed and cells were washed three times with warm PBS. Compounds stayed present in the basal medium until 48 h postinfection. At 48 hpi the viral load was determined by plaque assay on a 200 μL apical wash (PBS incubated on the apical side of the insets for 10 min at 37 °C). For assessing cytotoxicity with the CyQuant LDH cytotoxicity assay (Thermo Fisher Scientific), 10 μL of apical wash was diluted 5 times with 40 μL of PBS. A 25 μL volume of this dilution was added to 25 μL of assay reagent and incubated for 30 min at RT in the dark. The plate was fixed and measured at a wavelength of 490 nm (Envision reader, PerkinElmer). For the activity-based probe labeling, the insets were washed one more time with PBS and processed as described previously.[52] Briefly, cells were lysed with 60 μL of potassium phosphate buffer per insert. A fluorescently labeled probe (JJB383) was diluted in MclIvaine buffer (pH 7) to a 10 μM stock and incubated for 5 min on ice. For labeling of the cell lysate, 10 μL of lysate was added to 10 μL of MclIvaine buffer and 5 μL of probe. The lysate was incubated for 30 min at 37 °C before the addition of 10 μL of Laemmli sample buffer (4×). Samples were heated at 95 °C for 5 min and separated in a 10% SDS-PAGE gel. Fluorescence was measured at a wavelength of 625 nm (Cy5) with a Uvitec Alliance Q9 imager (BioSPX). After imaging, the gels were stained with GelCode Blue stain reagent (Thermo Fisher Scientific) and visualized using a Uvitec Essential V6 system to check for equal loading.

GAA = GAA (Homo sapiens, UniProt P10253); assay: Competitive activity-based protein profiling with ABP 29 in ALI-PBEC lysate, GAA; format: cell-based; conditions: pH 7, 48 hpi
SARS-CoV-2 [4] = assay: CPE reduction assay on H1299/ACE2 lung epithelial cells; format: cell-based; conditions: compared with Vero E6
GBA1 = conditions: cited from earlier work
GBA2 = conditions: cited from earlier work

**Q.** With `O=S1(=O)O[C@@H]2[C@H](O)[C@@H](O)[C@H](O)[C@@H](CO)[C@@H]2O1` [Compound 11, 1,6-epi-cyclophellitol cyclosulfate] as the compound, how does the EC50 (SARS-CoV-2 [1]) read?
**A.** 0.48 ± 0.1 µM

**Q.** What about the “extracellular viral RNA copies (in words)” value (SARS-CoV-2 [2]) of the same compound?
**A.** no reduction

**Q.** And the “infectious progeny of MERS-CoV (in words)” value (MERS-CoV)?
**A.** significant reduction of infectious progeny

**Q.** What about the “concentration at which the maximum antiviral effect was reached” value (SARS-CoV-2 [3]) of the same compound?
**A.** 0.5 µM

**Q.** What about the “reduction of viral load vs untreated control” value (SARS-CoV-2 [3]; 0.5 μM, 48 hpi) of the same compound?
**A.** up to 100 fold

**Q.** And the “reduction of infectious virus titers” value (SARS-CoV-2 [3]; 0.5–1.6 μM)?
**A.** up to 2 logs

**Q.** And the “in cellulo GAA inhibition by ABP 29 labeling (in words)” value (GAA)?
**A.** most efficient in inhibiting ER α-Glu II and GAA at low concentrations

**Q.** What about the “EC50 values in CPE reduction assay (in words)” value (SARS-CoV-2 [4]) of the same compound?
**A.** comparable EC50 values

**Q.** What about the “inhibition of GBA1” value (GBA1) of the same compound?
**A.** completely inactive; also recorded: does not inhibit

**Q.** And the “inhibition of GBA2” value (GBA2)?
**A.** completely inactive; also recorded: does not inhibit
